US20210228530A1, “TAXANE-LIPID-POLYSACCHARIDE DUAL CONJUGATES, PREPARATION METHODS THEREOF AND USES THEREOF” (Santolecan Pharmaceuticals LLC, priority 2018, published 2021)
Values after ≈ are worked out from the molar mass of the structure shown.

Tests used:
NCI-H460 tumor cells = assay: In vitro antitumor activity, MTT assay, NCI-H460; type: cell-based; conditions: Homo sapiens, 72 h treatment, conjugates in taxane molar equivalents
Procedure: (§1) In order to determine if the activity of the prepared intermediates and prepared conjugates, we evaluated their antitumor activities by using MTT assay.
(§2) All cell lines were maintained in a humidified atmosphere containing 5% CO2 at 37° C. in different media supplemented with 10% FBS, 100 U/ml penicillin, and 100 μg/ml streptomycin. MCF-7, NCI-H460 or OVCAR-3 tumor cells were seeded into a 96-well cell culture plate and incubated overnight. The 96-well culture plate was taken out from the incubator, and the conjugates or mixture of different compounds or polysaccharides were added into it. […] Three wells were set at each concentration. Blank control contained tumor cells in normal medium without any sample. After treatment for 72 h, 20 μL of 3-(4, 5-dimethylthiazole-2)-2,5-diphenyltetrazolium bromide (MTT) were added to each well and incubated for 4 hours at 37° C. […] The half-inhibitory concentration (IC50 value) of each compound or conjugate was calculated.

MCF-7 tumor cells = assay: In vitro antitumor activity, MTT assay, MCF-7; type: cell-based; conditions: Homo sapiens, MCF7, 72 h treatment, conjugates in taxane molar equivalents
Procedure: as §1, §2

[1] = system: metastatic malignant melanoma cancer; conditions: patients with metastatic malignant melanoma cancer; Ann. Oncol., 2011; cited from earlier work
[2] = literature report, drugbank.ca; cited from earlier work
[3] = Enhanced solubility test for poorly water-soluble compounds; type: physicochemical; conditions: 1.0 mg alone in 2.0 ml distilled water, sonicated for 1 minute
[4] = In vivo safety assay in xenograft nude mice: body weight and death; design: species or system BALB/c (nu/nu) mice; conditions: whole experiment period; 8.0 mg/kg docetaxel or equimolar dose, i.v. once a week, 4 weeks
Procedure: BALB/c (nu/nu) mice (20±2 g, 4-6 weeks old) were housed under pathogen-free conditions. Cancer cells such MCF-7 and NCI-H460 5.0×10^6, suspended in 100 μl PBS, were subcutaneously inoculated into the lower right rank of the nude mice. When the tumor size reached 100-150 mm^3, the mice were divided randomly into different groups (n=6 in each group). The control group received the solvent only. […] The mice were treated for 4 weeks. After the administration, the mice are raised normally. The tumor volume and mouse body weight were measured on every 3 days.

[5] = system: OVCAR-3 (drug resistance) tumor cells; assay: In vitro antitumor activity, MTT assay, OVCAR-3; type: cell-based; conditions: Homo sapiens, 72 h, taxane molar equivalents, molar ratio of taxane to lipid (Paclitaxel:DHA) 1:0, 1:1, 1:2, 1:4 per row
Procedure: as §1
All cell lines were maintained in a humidified atmosphere containing 5% CO2 at 37° C. in different media supplemented with 10% FBS, 100 U/ml penicillin, and 100 μg/ml streptomycin. MCF-7, NCI-H460 or OVCAR-3 tumor cells were seeded into a 96-well cell culture plate and incubated overnight. The 96-well culture plate was taken out from the incubator, and the conjugates or mixture of different compounds or polysaccharides were added into it. The concentration of each compound or conjugate were set to 500 nM, 200 nM, 100 nM, 50 nM, 25 nM, 12.5 nM, 6 nM, 3 nM and 1 nM. Three wells were set at each concentration. Blank control contained tumor cells in normal medium without any sample. After treatment for 72 h, 20 μL of 3-(4, 5-dimethylthiazole-2)-2,5-diphenyltetrazolium bromide (MTT) were added to each well and incubated for 4 hours at 37° C. After the removal of the supernatant, MTT formazan was dissolved in 150 μl dimethyl sulfoxide (DMSO) and monitored using a microplate reader at a wavelength of 570 nm. The half-inhibitory concentration (IC50 value) of each compound or conjugate was calculated.

Row | IC50 (NCI-H460 tumor cells) [nM] | IC50 (MCF-7 tumor cells) [nM] | IC50 [5] [nM] | Structure (SMILES) | final survival rates versus dacarbazine group [1] | solubility in water (literature) [2] [µg/mL] | observation of the compound alone in water [3] | death of nude mice [4]
1 | 7.1 ± 0.3 | 8.3 ± 0.5 | – | CO[C@H]1C(=O)[C@]2(C)[C@@H](OC)C[C@H]3OC[C@@]3(OC(C)=O)[C@H]2[C@H](OC(=O)c2ccccc2)[C@]2(O)C[C@H](OC(=O)[C@H](O)[C@@H](NC(=O)OC(C)(C)C)c3ccccc3)C(C)=C1C2(C)C [Cabazitaxel, cabazitaxel] | – | – | – | –
2 | – | – | – | CC/C=C\C/C=C\C/C=C\C/C=C\C/C=C\C/C=C/CCC(=O)O[C@@H](C(=O)O[C@H]1C[C@@]2(O)[C@@H](OC(=O)c3ccccc3)C3[C@](C)(C(=O)[C@H](OC(C)=O)C(=C1C)C2(C)C)[C@@H](O)C[C@H]1OC[C@@]31OC(C)=O)[C@@H](NC(=O)c1ccccc1)c1ccccc1 (stereo partly drawn) [DHA-paclitaxel] | no significant differences in final survival rates | – | – | –
3 | 17.9 ± 1.3 | 21.9 ± 1.1 | 57.6 ± 6.3 | CC(=O)O[C@H]1C(=O)[C@@]2(C)[C@H]([C@H](OC(=O)c3ccccc3)[C@]3(O)C[C@H](OC(=O)[C@H](O)[C@@H](NC(=O)c4ccccc4)c4ccccc4)C(C)=C1C3(C)C)[C@]1(OC(C)=O)CO[C@@H]1C[C@@H]2O [Paclitaxel, paclitaxel] | – | – | undissolved powder floated over water surface was clearly observed | –

Row | Structure (SMILES) | IC50 (NCI-H460 tumor cells) [nM] | IC50 (MCF-7 tumor cells) [nM] | IC50 [5] [nM] | final survival rates versus dacarbazine group [1] | solubility in water (literature) [2] [µg/mL] | observation of the compound alone in water [3] | death of nude mice [4]
4 | CC(=O)O[C@@]12CO[C@@H]1C[C@H](O)[C@@]1(C)C(=O)[C@H](O)C3=C(C)[C@@H](OC(=O)[C@H](O)[C@@H](NC(=O)OC(C)(C)C)c4ccccc4)C[C@@](O)([C@@H](OC(=O)c4ccccc4)[C@H]21)C3(C)C [Docetaxel, docetaxel] | 6.7 ± 0.6 | 9.5 ± 0.2 | – | – | 1.27 (≈ 1.57 µM) | undissolved powder floated over water surface was clearly observed | no death
